In brackets after ≈: the same amount, converted by molar mass.
What was measured:
[1] = system: MV-4-11 cells; assay: Apoptosis assay (annexin V/PI staining, flow cytometry); format: cell-based, human; settings: 26 µM (1 × IC50); 24 h
Procedure: To further investigate the cell death pathway activated by 1, an apoptosis assay was performed and the ability of 1 to induce apoptosis and/or necrosis in MV-4-11 cell line was evaluated by annexin V/PI staining (Figure 5). The cells were divided into 3 different populations: annexin V−/PI− (healthy cells), annexin V+/PI− (apoptotic cells) and annexin V+/PI+ (late apoptotic/necrotic cells). […] However, after 24 h and 48 h of incubation at the highest concentration of compound (104 µM), no increase in apoptotic cells were seen when compared to cells incubated with 52 µM.
MV-4-11 cells were seeded into 24-well plates (Nunclon^TM Delta Surface, Thermo Scientific) at a density of 1 × 10^6 cells/mL supplemented with 26 µM, 52 µM or 104 µM of 1 and incubated for 24 or 48 h at 37 °C an 5% CO2. Apoptotic and necrotic cells were labelled according to manufacturer’s instructions (Alexa Fluor^TM 488 Annexin V/Dead Cell Apoptosis Kit, Invitrogen) and analysed by a CytoFLEX Flow cytometer and CytExpert software (Beckman Coulter).

[2] = system: MOLM-13; assay: Viability screening, colorimetric MTS assay; format: cell-based, human; set-up: key: Active: active compound was defined as ≤50% survival at one of the concentrations; Inactive; settings: MOLM-13, acute myeloid leukemia; screened at 10 and 50 µM; 72 h
Procedure: (§1) All cell lines were purchased from ATCC (Manassa, VA, USA) except MOLM-13 that was purchased from Leibniz Institute DSMZ (Braunschweig, Germany). Viability screening of compounds 1–3 at 10 and 50µM was performed by a colorimetric MTS assay. The cells were seeded into 96-well microtiter plates (Nunclon^TM Delta Surface, Thermo Scientific, Roskilde, Denmark) in RPMI-1640 supplemented with 10% FBS and 10µg/mL Gentamycin (assay media). The adherent cell lines A2058, HaCat and HT29 were seeded in a density of 2000 cells/well, MRC5 were seeded in a density of 4000 cells/well and SK-BR-3 and MDA-MB-468 were seeded in a density of 5000 cells/well. After incubation for 24 h in 37 °C and 5% CO2 the media was discarded and replaced by samples diluted in assay media, negative control (100% cell survival, 100% assay media) and positive control (0% cell survival, 90% assay media supplemented with 10% DMSO). The suspension cell lines MV-4-11 and MOLT-4 were directly seeded in a density of 10,000 cells/well and MOLM-13 and THP-1 were seeded in a density of 20,000 cells/well in assay media supplemented with sample. All samples were added in triplicates. Cells and samples were incubated for a total of 72 h (HepG2 cells were incubated for 24 h) at 37 °C and 5% CO2. Thereafter, 10% CellTiter 96®AQueous One Solution Reagent (G3581, Promega) containing tetrazolium compound [3-(4,5-dimethylthiazol-2-yl)-5-(3-carboxymethoxyphenyl)-2-(4-sulfophenyl)-2H-tetrazolium] and phenazine ethosulfate were added. After 1 h incubation the absorbances was measured at 485 nm with a DTX 880 and viability was calculated.

[3] = biological target: FLT3-ITD mutant (Homo sapiens, UniProt P36888); format: binding; settings: concentrations tested up to 10 μM
Procedure: (§2) A FRET signal is generated between an Europium-labelled tag, on the FLT3 kinase, and a fluorescent tracer with high binding affinity for the FLT3 active site.
(§3) Anti-GST-Eu-tagged monoclonal antibodies (anti-GST AB) were purchase from Cisbio (PerkinElmer Norge AS, catalogue number 61GSTKLA) and reconstituted in water at a final concentration of 333 nM. White, non-binding, round bottom 384 well microplates (reference number 4513) were purchased from Corning (Corning Inc, Kennebunk, ME, USA). The compounds were serially diluted into DMSO to 12 different concentrations. Each of these compound-containing DMSO solutions was further diluted 33 times in assay buffer A (50 mM HEPES pH 7.5, 10 mM MgCl2, 1 mM ethylene glycol-bis(β-aminoethyl ether)-N,N,N′,N′-tetraacetic acid (EGTA) and 0.01% BRIJ-35) and 5 μL of these solutions were dispensed in triplicates in 384 well plate. […] Fluorescence measurements were made using a EnVision 2104 Multilabel reader, (PerkinElmer, US), excitation wavelength was set to 340 nm and emission was read at both 615 nm (8.5 nm bandwidth) and 665 nm (7.5 nm bandwidth) over […] between excitation and emission measurements.

[4] = biological target: T1, FLT3 WT (Homo sapiens, UniProt P36888); assay: Kinase binding assay (FRET tracer competition); settings: concentrations tested up to 10 μM
T1 construct: purchased ThermoFisher Scientific PV3182
T1 sequence (P36888 564-993 limits assumed): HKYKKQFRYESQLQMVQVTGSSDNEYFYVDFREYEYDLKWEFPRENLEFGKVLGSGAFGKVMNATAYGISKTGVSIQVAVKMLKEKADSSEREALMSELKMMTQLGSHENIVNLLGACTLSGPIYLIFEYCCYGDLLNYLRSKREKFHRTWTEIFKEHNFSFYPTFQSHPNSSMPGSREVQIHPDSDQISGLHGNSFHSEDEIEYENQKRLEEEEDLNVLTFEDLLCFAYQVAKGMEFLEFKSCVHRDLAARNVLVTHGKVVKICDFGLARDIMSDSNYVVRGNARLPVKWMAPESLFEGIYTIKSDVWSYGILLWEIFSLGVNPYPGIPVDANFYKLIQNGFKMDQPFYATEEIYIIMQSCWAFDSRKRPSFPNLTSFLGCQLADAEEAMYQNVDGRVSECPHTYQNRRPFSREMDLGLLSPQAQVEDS
Procedure: as §2, §3

[5] = system: MV-4-11 cells; assay: Cell cycle analysis (PI staining, flow cytometry); format: cell-based, human; settings: 24 h, compared to control
Procedure: MV-4-11 cells were seeded into 24-well plates (Nunclon^TM Delta Surface, Thermo Scientific) in a density of 1 × 10^6 cells/mL supplemented with 26 µM, 52 µM or 104 µM of 1. The cells were incubated for 24 h and thereafter fixed in ice cold 70% EtOH. After washing the cells were stained with FxCycle™ PI/RNase Staining Solution (Invitrogen, MA, USA) according to manufacturer’s instructions. The cells were analysed by a CytoFLEX Flow cytometer (Beckman Coulter, CA, USA) and cell cycle phase determined in CytExpert software (Beckman Coulter).

[6] = system: THP-1; assay: Viability screening, colorimetric MTS assay; format: cell-based; set-up: key: Active: active compound was defined as ≤50% survival at one of the concentrations; Inactive; settings: THP-1, acute monocytic leukemia; screened at 10 and 50 µM; 72 h
Procedure: as §1

[7] = system: HepG2; assay: Viability screening, colorimetric MTS assay; format: cell-based; set-up: key: Active: active compound was defined as ≤50% survival at one of the concentrations; Inactive; settings: HepG2, liver hepatocellular carcinoma; screened at 10 and 50 µM; 24 h
Procedure: as §1

[8] = system: MOLT-4; assay: Viability screening, colorimetric MTS assay; format: cell-based; set-up: key: Active: active compound was defined as ≤50% survival at one of the concentrations; Inactive; settings: MOLT-4, acute lymphoblastic leukemia; screened at 10 and 50 µM; 72 h
Procedure: as §1

[9] = system: MDA-MB-468; assay: Viability screening, colorimetric MTS assay; format: cell-based; set-up: key: Active: active compound was defined as ≤50% survival at one of the concentrations; Inactive; settings: MDA-MB-468, breast cancer; screened at 10 and 50 µM; 72 h
Procedure: as §1

[10] = system: HT29; assay: Viability screening, colorimetric MTS assay; format: cell-based; set-up: key: Active: active compound was defined as ≤50% survival at one of the concentrations; Inactive; settings: HT29, colon cancer; screened at 10 and 50 µM; 72 h
Procedure: as §1

[11] = system: SK-BR-3; assay: Viability screening, colorimetric MTS assay; format: cell-based; set-up: key: Active: active compound was defined as ≤50% survival at one of the concentrations; Inactive; settings: SK-BR-3, breast cancer; screened at 10 and 50 µM; 72 h
Procedure: as §1

[12] = system: HaCat; assay: Viability screening, colorimetric MTS assay; format: cell-based; set-up: key: Active: active compound was defined as ≤50% survival at one of the concentrations; Inactive; settings: keratinocytes (non-cancerous), screened at 10 and 50 µM, 72 h
Procedure: as §1

[13] = system: MRC5; assay: Viability screening, colorimetric MTS assay; format: cell-based; set-up: key: Active: active compound was defined as ≤50% survival at one of the concentrations; Inactive; settings: MRC5, lung fibroblasts (non-cancerous); screened at 10 and 50 µM; 72 h
Procedure: as §1

[14] = system: A2058; assay: Viability screening, human melanoma cell line; format: cell-based; set-up: key: Active: active compound was defined as ≤50% survival at one of the concentrations; Inactive; settings: screened at 10 and 50 µM, 72 h
Procedure: The flash fractions of P. militaris were assayed for activity against the human melanoma cancer cell line A2058 at 50 µg/mL. […] The flash fractions were also assayed against the human pathogenic bacterial strains Staphylococcus aureus, Enterococcus faecalis, Escherichia coli, Pseudomonas aeruginosa and Streptococcus agalactiae (Gr. B).
as §1

[15] = system: MV-4-11; assay: Viability screening and IC50 determination, MTS assay; format: cell-based, human; set-up: key to Activity at ≤50 µM: Active: active compound was defined as ≤50% survival at one of the concentrations; Inactive; settings: for Activity at ≤50 µM: MV-4-11, acute myeloid leukemia, screened at 10 and 50 µM, 72 h
Procedure: as §1

[16] = system: Aurobasidium pollulans; assay: Antifungal growth inhibition assay; format: cell-based; settings: positive control
Procedure: (§4) The yeast strains Candida albicans (ATCC 10231) and Rhodotrula sp. and the Aurobasidium pollulans mold, were cultivated on potato dextrose agar with 2% glucose at room temperature. Fungal spores were dissolved in potato dextrose broth (Difco Laboratories, USA) and the cell concentration was determined and adjusted after counting in a Bürker chamber. […] The assay plates were incubated in a moist dark chamber at 37 °C. […] Growth inhibition was determined microscopically after 42 h incubation.

[17] = system: Rhodotrula sp.; assay: Antifungal growth inhibition assay; format: cell-based; settings: positive control
Procedure: as §4

Row | SMILES | Activity at ≤50 µM [2] | Activity at ≤50 µM [6] | Activity at ≤50 µM [7] | Activity at ≤50 µM [8] | Activity at ≤50 µM [9] | Activity at ≤50 µM [10] | Activity at ≤50 µM [11] | Activity at ≤50 µM [12] | Activity at ≤50 µM [13] | Activity at ≤50 µM [14] | Activity at ≤50 µM [15] | other results
1 | COC(=O)[C@@H](CCOc1c(Br)cc(Br)cc1Br)[N+](C)(C)C [compound 1, purpuroine K] | Active | I | I | I | I | I | I | I | I ^2 | I | Active | increase in percentage of apoptotic cells compared to control [1]: 94%; binding to FLT-ITD mutant active site [3]: does not bind; binding to FLT3 WT active site [4]: does not bind; decrease of cells entering G2/M-phase ([5]; 52 µM): 26%; decrease of cells entering the S-phase ([5]; 52 µM): 23%; increase in the number of cells arrested in G0/G1 phase ([5]; 52 µM): 11%; decrease of cells entering G2/M-phase ([5]; 104 µM): 55%; decrease of cells entering the S-phase ([5]; 104 µM): 38%; increase in the number of cells arrested in G0/G1 phase ([5]; 104 µM): 19%; IC50 ([15]; Homo sapiens, MV4-11, MV-4-11 cell line, read-out: IC50 against MV-4-11): 26 ± 1.2 µM
2 | C[C@@H]1[C@H](O)[C@@H](C)/C=C/C=C/C=C/C=C/C=C/C=C/C=C/[C@H](O[C@@H]2O[C@H](C)[C@@H](O)[C@H](N)[C@@H]2O)C[C@@H]2O[C@](O)(C[C@@H](O)C[C@@H](O)[C@H](O)CC[C@@H](O)C[C@@H](O)CC(=O)O[C@H]1C)C[C@H](O)[C@H]2C(=O)O [amphotericin-B] | – | – | – | – | – | – | – | – | – | – | – | MIC [16]: 8.7 µM (≈ 8.04 µg/mL); MIC [17]: 8.7 µM (≈ 8.04 µg/mL)
3 | COC(=O)[C@@H](CCOc1c(Cl)cc(Br)cc1Cl)[N+](C)(C)C [compound 3, purpuroine M] | I | I | I | I | I | I | I | I | I | I | I | –
4 | COC(=O)[C@@H](CCOc1c(Cl)cc(Br)cc1Br)[N+](C)(C)C [compound 2, purpuroine L] | I | I | I | I | I | I | I | I | I | I | I | –

— paper PMC9779817, “Identification of New Purpuroine Analogues from the Arctic Echinodermata Pteraster militaris That Inhibit FLT3-ITD^+ AML Cell Lines” (International Journal of Molecular Sciences, 2022)
